# Assay results reported in EP3428647A1, “EXPRESSION SIGNATURE FOR GLIOMA DIAGNOSIS AND/OR PROGNOSIS IN A SUBJECT” (Consejo Superior de Investigaciones Científicas (CSIC), priority 2017, dated 2019).
# Where two headings read alike, the source gives them in different places.
# Columns and labels:
# [1] = test system: U251MG; experiment: Cytotoxic assay MTT, monolayer culture; format: cell-based; settings: Homo sapiens
# Method: (§1) The human Glioblastoma cell line SF268 and U251MG were cultured in RPMI 1640 medium (SIGMA) supplemented with 10% Fetal Bovine Serum (FBS) at 37°C under 5% CO2 atmosphere. For DNA transfection, SF268 and U251MG were transfected with Mirus TransIT-X2 Dynamic Delivery System (Mirus MIR6000) in exponential phase with 2.5 µg of a small hairping RNA (shRNA) against NAMPT (QIAGEN SureSilencing shRNA insert sequence: 5'-[…]-3' (SEQ ID NO: 17)), 2.5 µg of DNA carrying an hygromycin empty vector (QIAGEN noncoding sequence: 5'-[…]-3' (SEQ ID NO: 18)) and 2.5 µg of DNA of pCMV-hygromycin carrying a cDNA of NAMPT gene (SinoBiological HG10990-M).
# (§2) For the assay, 5x10^3 cells were seeded and then treated with the different compound at 11 different concentrations at 1/3 dilutions after 24 hours. Then, 96 hours later, cell viability was measured via MTT assay and validated independently by crystal violet staining. IC50 was calculated as the concentration allowing 50% survival compared to day 0 controls. Combination experiments were performed testing 11 different concentrations at 1/3 dilutions of FK866 and maintaining same suboptimal concentration of TMZ (as indicated) in all tested points.
# [2] = test system: SF268 tumorspheres; experiment: Cytotoxic assay, tumorsphere specific assay; format: cell-based, human; settings: for IC50: Homo sapiens
# Method: (§3) A total of 5x10^3 cells/mL/well were seeded in Ultra-low Attachment Plates containing MammoCultTM Basal Medium (Human) (Stem Cell Tech) supplied with 0.48 mg/mL hydrocortisone, 0.2% heparin solution and 10% MammoCult™ Proliferation Supplement (Human). After 4 days, primary tumorspheres were measured, both in size and in number, using an inverted microscope (Olympus CKX41).
# as §2
# [3] = test system: SF268; experiment: Cytotoxic assay MTT, monolayer culture; format: cell-based, human; settings: for IC50: Homo sapiens, monolayer
# Method: as §1
# 5x10^3 SF268 cells were seeded then treated with FK866 24 hours later. After 96 hours, cell viability was measured with MTT.
# as §2
# [4] = test system: U251MG tumorspheres; experiment: Cytotoxic assay, tumorsphere specific assay; format: cell-based; settings: Homo sapiens
# Method: as §3, §2
# [5] = test system: SF268 and U251MG NAMPT-underexpressing cells; experiment: FACS analysis of CD133 and CD44, rescue; format: cell-based, human; settings: 1 mM NMN; both cell lines
# Method: Single cells were individually seeded through cell sorting (BD FACS Jazz) in 96 well Ultra-low attachment plates containing MammoCultTM Basal medium (Human) (Stem Cell Tech) supplied with hydrocortisone 0.48 mg/mL, Heparin solution 0.2% and 10% MammoCult™ Proliferation Supplement (Human). After 21 days, primary tumorspheres formed were measured both in size and number using inverted microscope (Olympus CKX41). Fluorescence-activated cell sorting (FAC). For FACS staining, live cells were incubated with CD133 (AC133-PE, Miltenyi) and CD44 (PE, Miltenyi) for 30 minutes at dilutions specified in the manufacturer's protocols.
# NAMPT catalyzes the conversion of nicotinamide to nicotinamide mononucleotide (NMN), which is the rate-limiting step in the NAD salvage pathway. If the enzymatic activity of NAMPT is directly responsible for these phenotypes, the phenotype should be recovered by directly adding the product of the enzyme to cells. Therefore, we repeated the previous surrogate experiments and added saturating concentrations of NMN to cells expressing low levels of NAMPT (sh supplemented with NMN, sh+NMN). In these experiments, we rescued the parental phenotypes by supplying the cells with the NAMPT metabolic product NMN (Figure 6A-D left). […] Similar results were found using a second shRNA against NAMPT (Figure 4A, B). […]
# [6] = test system: NAMPT- underexpressing cells; experiment: Clonal heterogeneity analysis (clone phenotypes), rescue; format: cell-based, human; settings: 1 mM NMN; both cell lines
# Method: (§4) 10^3 cells were seeded in 10 cm plates, every condition in triplicate. The medium was replaced every 3 days and after 12 days the colonies were fixed and stained with a Crystal violet assay. After extensive-washing, colonies were counted. Values are expressed in number of observed colonies among 10^3 seeded cells. To analyze the clonal heterogeneity, 10^2 random colonies were classified in triplicate depending on its phenotype: Holoclone, Meroclone and Paraclone (Li H. et al 2008.; Garcia-Heredia JM, Lucena-Cacace A, Verdugo-Sivianes EM, Perez M, Carnero A. The cargo protein MAP17 (PDZK1IP1) regulates the cancer stem cell pool activating the Notch pathway by abducting NUMB. Clin Cancer Res. 2017 Feb 2. doi: 10.1158/1078-0432.CCR-16-2358. [
# (§5) NAMPT catalyzes the conversion of nicotinamide to nicotinamide mononucleotide (NMN), which is the rate-limiting step in the NAD salvage pathway. If the enzymatic activity of NAMPT is directly responsible for these phenotypes, the phenotype should be recovered by directly adding the product of the enzyme to cells. Therefore, we repeated the previous surrogate experiments and added saturating concentrations of NMN to cells expressing low levels of NAMPT (sh supplemented with NMN, sh+NMN). In these experiments, we rescued the parental phenotypes by supplying the cells with the NAMPT metabolic product NMN (Figure 6A-D left). […]
# [7] = test system: SF268 NAMPT-underexpressing cells; experiment: Sphere-forming assay, rescue; format: cell-based, human; settings: 1 mM NMN; compared to sh
# Method: as §3
# NAMPT catalyzes the conversion of nicotinamide to nicotinamide mononucleotide (NMN), which is the rate-limiting step in the NAD salvage pathway. If the enzymatic activity of NAMPT is directly responsible for these phenotypes, the phenotype should be recovered by directly adding the product of the enzyme to cells. Therefore, we repeated the previous surrogate experiments and added saturating concentrations of NMN to cells expressing low levels of NAMPT (sh supplemented with NMN, sh+NMN). In these experiments, we rescued the parental phenotypes by supplying the cells with the NAMPT metabolic product NMN (Figure 6A-D left). […] Similar results were found using a second shRNA against NAMPT (Figure 4A, B).
# Similar results were found using a second shRNA against NAMPT (Figure 4A, B).
# [8] = test system: SF268 NAMPT-underexpressing cells; experiment: Colony formation (clonogenicity) assay, rescue; format: cell-based, human; settings: 1 mM NMN; compared to sh
# Method: as §4, §5
# [9] = test system: SF268 NAMPT-underexpressing cells; experiment: Proliferation assay (growth curve), rescue of NAMPT-underexpressing cells; format: cell-based, human; settings: 1 mM NMN; compared to sh
# Method: A time course curve of parental (empty vector transfected cells) and NAMPT both cDNA and shRNA-expressing cells was generated by seeding […] in 2.2 cm bottom-well diameter dishes in triplicate samples. After 24 hours, medium was changed (day 0) and the indicated culture media added. Every 24 hours, cells were fixed and stained with crystal violet 1% (SIGMA C6158-50G). After extensive washing, crystal violet was solubilized in 20% acetic acid (Sigma) and quantified at 595 nm absorbance as a relative measure of cell number (BIORAD iMarkTM Microplate Reader). Values are expressed as the percentage of cell growth of cells growing in the presence of 10% FBS. Zero percent refers to the number of cells at day 0.
# as §5
# [10] = U-251, U251MG NAMPT (overexpressing), combined with constant 150 µM TMZ, read-out: IC50 FK866 + 150 µM TMZ (nM ± SD)
# [11] = U-251, U251MG sh (NAMPT shRNA), combined with constant 150 µM TMZ, read-out: IC50 FK866 + 150 µM TMZ (nM ± SD)
# [12] = U-251, U251MG v (vector only), combined with constant 150 µM TMZ, read-out: IC50 FK866 + 150 µM TMZ (nM ± SD)
# [13] = SF-268, SF268 NAMPT (overexpressing), combined with constant 100 µM TMZ, read-out: IC50 FK866 + 100 µM TMZ (nM ± SD)
# [14] = SF-268, SF268 sh (NAMPT shRNA), combined with constant 100 µM TMZ, read-out: IC50 FK866 + 100 µM TMZ (nM ± SD)
# [15] = SF-268, SF268 v (vector only), combined with constant 100 µM TMZ, read-out: IC50 FK866 + 100 µM TMZ (nM ± SD)
compound,measurement,setting,value
O=C(/C=C/c1cccnc1)NCCCCC1CCN(C(=O)c2ccccc2)CC1 [FK866],IC50,"[1]; U-251, 96 h, U251MG NAMPT (overexpressing), monotherapy, 96 hours, read-out: IC50 FK866 (nM ± SD)",15.3 ± 1.2 nM
same,IC50,"[1]; U-251, 96 h, U251MG sh (NAMPT shRNA), monotherapy, 96 hours, read-out: IC50 FK866 (nM ± SD)",22.3 ± 0.6 nM
same,IC50,"[1]; U-251, 96 h, U251MG v (vector only), monotherapy, 96 hours, read-out: IC50 FK866 (nM ± SD)",20.7 ± 0.7 nM
same,IC50,[1]; [10],5.1 ± 1.4 nM
same,IC50,[1]; [11],19.4 ± 0.7 nM
same,IC50,[1]; [12],14.3 ± 1.3 nM
same,induced toxicity in tumorspheres (CIC population),[2],effective
same,IC50,[2]; [13],0.5 ± 1.1 nM
same,IC50,"[2]; SF-268, SF268 NAMPT (overexpressing), monotherapy, read-out: IC50 FK866 (nM ± SD)",2.5 ± 0.4 nM
same,IC50,[2]; [14],7.3 ± 0.7 nM
same,IC50,"[2]; SF-268, SF268 sh (NAMPT shRNA), monotherapy, read-out: IC50 FK866 (nM ± SD)",9.5 ± 0.9 nM
same,IC50,[2]; [15],4.2 ± 0.3 nM
same,IC50,"[2]; SF-268, SF268 v (vector only), monotherapy, read-out: IC50 FK866 (nM ± SD)",6.1 ± 1.2 nM
same,IC50,"[3]; SF-268, 96 h, SF268 NAMPT (overexpressing), monotherapy, 96 hours, read-out: IC50 FK866 (nM ± SD)",2.8 ± 0.3 nM
same,IC50,"[3]; SF-268, 96 h, SF268 sh (NAMPT shRNA), monotherapy, 96 hours, read-out: IC50 FK866 (nM ± SD)",8.3 ± 0.8 nM
same,IC50,"[3]; SF-268, 96 h, SF268 v (vector only), monotherapy, 96 hours, read-out: IC50 FK866 (nM ± SD)",5.2 ± 0.9 nM
same,IC50,[3]; [13],0.2 ± 0.4 nM
same,IC50,[3]; [14],6.1 ± 0.2 nM
same,IC50,[3]; [15],2.4 ± 0.4 nM
same,effect of combined treatment with TMZ on the values,[3]; both in mass cultures and tumorspheres,slightly sensitized
same,sensitivity of NAMPT-overexpressing cells in mass cultures,[3]; compared with parental cells and NAMPT underexpressing cells,more sensitive
same,IC50,[4]; [10],7.2 ± 0.7 nM
same,IC50,"[4]; U-251, U251MG NAMPT (overexpressing), monotherapy, read-out: IC50 FK866 (nM ± SD)",11.3 ± 1.3 nM
same,IC50,[4]; [11],25.4 ± 1.8 nM
same,IC50,"[4]; U-251, U251MG sh (NAMPT shRNA), monotherapy, read-out: IC50 FK866 (nM ± SD)",27.3 ± 1.4 nM
same,IC50,[4]; [12],17.1 ± 0.9 nM
same,IC50,"[4]; U-251, U251MG v (vector only), monotherapy, read-out: IC50 FK866 (nM ± SD)",18.6 ± 1.9 nM
"NC(=O)c1ccc[n+](C2OC(COP(=O)([O-])O)C(O)C2O)c1 (stereo not drawn) [NMN, nicotinamide mononucleotide]",levels of CD44 expression,[5],can rescue the levels of CD44 expression in the vector
same,levels of CD133 expression,[5],can rescue and surpass the levels of CD133 expression in the vector
same,number of holoclones,[6],can rescue the number of holoclones in the vector
same,tumorsphere area / number of tumorspheres,[7],can rescue the number of tumorspheres generated in the vector
same,clonogenicity,[8],can rescue the clonogenetic ability of the vector
same,"growth curve, vector-proliferation ratio",[9],can rescue the vector-proliferation ratio
"Cn1nnc2c(C(N)=O)ncn2c1=O [TMZ, Temozolomide]",IC50,"[1]; U-251, 96 h, U251MG NAMPT (overexpressing), monotherapy, 96 hours, read-out: IC50 TMZ (µM ± SD)",201000 ± 5300 nM
same,IC50,"[1]; U-251, 96 h, U251MG sh (NAMPT shRNA), monotherapy, 96 hours, read-out: IC50 TMZ (µM ± SD)",204000 ± 4800 nM
same,IC50,"[1]; U-251, 96 h, U251MG v (vector only), monotherapy, 96 hours, read-out: IC50 TMZ (µM ± SD)",194000 ± 3400 nM
same,IC50,"[2]; SF-268, SF268 NAMPT (overexpressing), monotherapy, read-out: IC50 TMZ (µM ± SD)",173000 ± 3200 nM
same,IC50,"[2]; SF-268, SF268 sh (NAMPT shRNA), monotherapy, read-out: IC50 TMZ (µM ± SD)",174000 ± 3600 nM
same,IC50,"[2]; SF-268, SF268 v (vector only), monotherapy, read-out: IC50 TMZ (µM ± SD)",170000 ± 2100 nM
same,IC50,"[3]; SF-268, 96 h, SF268 NAMPT (overexpressing), monotherapy, 96 hours, read-out: IC50 TMZ (µM ± SD)",174000 ± 2100 nM
same,IC50,"[3]; SF-268, 96 h, SF268 sh (NAMPT shRNA), monotherapy, 96 hours, read-out: IC50 TMZ (µM ± SD)",163000 ± 2200 nM
same,IC50,"[3]; SF-268, 96 h, SF268 v (vector only), monotherapy, 96 hours, read-out: IC50 TMZ (µM ± SD)",165000 ± 1900 nM
same,IC50,"[4]; U-251, U251MG NAMPT (overexpressing), monotherapy, read-out: IC50 TMZ (µM ± SD)",222000 ± 4700 nM
same,IC50,"[4]; U-251, U251MG sh (NAMPT shRNA), monotherapy, read-out: IC50 TMZ (µM ± SD)",221000 ± 3200 nM
same,IC50,"[4]; U-251, U251MG v (vector only), monotherapy, read-out: IC50 TMZ (µM ± SD)",224500 ± 1700 nM
